Reference: PMC6177136, “Hybrid topoisomerase I and HDAC inhibitors as dual action anticancer agents” (PLoS ONE, 2018)

Legend:
p53 = assay: Western blot, p53 in NCI-H460 cells; type: cell-based, Human; details: 24 h; SAHA 5 μM, SN38 0.05 μM, 3d 0.125–0.2–0.5 μM
Procedure: (§1) The supernatant, containing the total proteins extracts, were transferred in new vials. The protein concentration was measured by Bradford Protein Assay. Equal amounts of proteins for each sample were then resolved by SDS-PAGE and loaded on 10–12% polyacrilamide gels. The proteins were then transferred on nitrocellulose membranes. Molecular weights were estimated based upon the relative migration with molecular weight protein markers.
(§2) The non-specific binding was blocked by incubation of membranes in TBS-tween (25 mM Tris, 150 mM NaCl, 0.1% Tween 20) with 5% nonfat dry milk (BIORAD, Milan) for 60 minutes. Subsequently, the membrane was incubated overnight with primary antibodies: anti-Histone H4 (Millipore, 1:500), anti-acetyl-H4 (Santa Cruz, 1:1000) anti-p21 (Santa Cruz, 1:1000), anti-acetyl-tubulin (abcam, 1:1000), anti-α-tubulin (Sigma, 1:5000), anti β-actin (Sigma, 1:5000) and anti-Topoisomerase 1 (Santa Cruz, 1:500). After three washes with TBST blots were incubated with HRP-coniugated secondary anti-mouse and anti-rabbit (Santa Cruz, 1:5000) 1 hour at room temperature. After three washes with TBST the blots were developed with ECL substrate (GE Healthcare) and chemiluminescence detected by ChemiDoc Imaging System (Biorad). The optical density of the protein bands detected by western blotting was normalized on α -tubulin levels and analyzed by ChemiDoc software (Biorad).
(§3) Cells were lysed in 0.5% NP-40 and 40 μg of total proteins were loaded on NuPAGE 4–12% (Invitrogen), transferred to a nitrocellulose paper and probed with specific antibodies.

L-428 = assay: Cytotoxicity assay (MTT, 72 h) L-428; type: cell-based, Human; details: Homo sapiens, L-428; 72 h, MTT assay; read-out: IC50 ± SD L-428
Procedure: Human tumor cells were seeded in 96-well cell culture plastic plates, allowed to attach, and exposed to scalar concentrations of the test compounds.

A2780-Dx = assay: Cytotoxicity assay (SRB, 72 h) A2780-Dx; type: cell-based, Human
MM317 = assay: Cytotoxicity assay, primary mesothelioma MM317; type: cell-based, Human; details: Homo sapiens; epithelioid, 72 h, SBR assay; read-out: IC50 ± SD MM317
NCI-H460 NSCLC cells = assay: FACS analysis of cell cycle and apoptosis; type: cell-based, Human; details: 72 h at own IC80 dose, PI staining
DG-75 = assay: Cytotoxicity assay (MTT, 72 h) DG-75; type: cell-based, Human; details: Homo sapiens, DG-75; 72 h, MTT assay; read-out: IC50 ± SD DG-75
p16 = assay: Western blot, p16 in NCI-H460 cells; type: cell-based, Human; details: 24 h; SAHA 5 μM, SN38 0.05 μM, 3d 0.125–0.2–0.5 μM
Procedure: as §1, §2, §3

JECO-1 = assay: Cytotoxicity assay (MTT, 72 h) JECO-1; type: cell-based, Human; details: Homo sapiens; 72 h, MTT assay; read-out: IC50 ± SD JECO-1
MM487 = assay: Cytotoxicity assay, primary mesothelioma MM487; type: cell-based, Human; details: Homo sapiens, MM487; biphasic, 72 h, SBR assay; read-out: IC50 ± SD MM487
Capan 1 = assay: Cytotoxicity assay (SRB, 72 h) Capan 1; type: cell-based, Human; details: Homo sapiens, CAPAN-1, read-out: IC50 ± SD Capan 1
[1] = test system: human epithelioid mesothelioma MM473-Luc; assay: In vivo antitumor activity, orthotopic MM473-Luc xenograft; details: i.v. 45 mg/kg, q4dx3w, treatment from day 15
KM-H2 = assay: Cytotoxicity assay (MTT, 72 h) KM-H2; type: cell-based, Human; details: Homo sapiens, KM-H2; 72 h, MTT assay; read-out: IC50 ± SD KM-H2
RAJI = assay: Cytotoxicity assay (MTT, 72 h) RAJI; type: cell-based; details: Homo sapiens, read-out: IC50 ± SD RAJI
RAMOS = assay: Cytotoxicity assay (MTT, 72 h) RAMOS; type: cell-based; details: Homo sapiens, read-out: IC50 ± SD RAMOS
HDAC10 = HDAC10 (Homo sapiens, UniProt Q969S8); assay: HDAC profiling HDAC10; type: biochemical; details: purified isoform, 10 concentrations from 10 μM, triplicate
Chain of HDAC10 (Q969S8 whole entry, canonical isoform): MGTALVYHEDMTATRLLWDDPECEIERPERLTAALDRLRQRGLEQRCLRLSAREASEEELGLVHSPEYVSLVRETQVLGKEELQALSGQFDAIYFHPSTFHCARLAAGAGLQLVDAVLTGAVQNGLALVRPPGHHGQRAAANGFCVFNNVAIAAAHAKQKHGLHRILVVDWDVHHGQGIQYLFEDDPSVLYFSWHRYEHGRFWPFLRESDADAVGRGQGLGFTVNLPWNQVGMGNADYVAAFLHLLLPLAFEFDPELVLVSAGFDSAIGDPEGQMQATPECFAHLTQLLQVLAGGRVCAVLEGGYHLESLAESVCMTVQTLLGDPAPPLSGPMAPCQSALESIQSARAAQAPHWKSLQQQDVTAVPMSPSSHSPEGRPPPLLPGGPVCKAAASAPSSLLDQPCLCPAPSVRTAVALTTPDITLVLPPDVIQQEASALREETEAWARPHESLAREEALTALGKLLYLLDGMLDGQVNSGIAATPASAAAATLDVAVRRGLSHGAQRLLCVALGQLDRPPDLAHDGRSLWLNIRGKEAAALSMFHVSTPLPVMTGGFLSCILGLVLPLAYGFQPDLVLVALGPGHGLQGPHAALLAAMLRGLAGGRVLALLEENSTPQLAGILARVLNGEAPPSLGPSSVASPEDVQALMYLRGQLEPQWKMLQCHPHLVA

A431 = assay: Cytotoxicity assay (SRB, 72 h) A431; type: cell-based, Human; details: Homo sapiens, A-431, read-out: IC50 ± SD A431
MV4-11 = assay: Cytotoxicity assay (MTT, 72 h) MV4-11; type: cell-based; details: Homo sapiens, read-out: IC50 ± SD MV4-11
HDAC2 = HDAC2 (Homo sapiens, UniProt Q92769); assay: HDAC profiling HDAC2; type: biochemical; details: purified isoform, 10 concentrations from 10 μM, triplicate
Chain of HDAC2 (Q92769 whole entry, canonical isoform): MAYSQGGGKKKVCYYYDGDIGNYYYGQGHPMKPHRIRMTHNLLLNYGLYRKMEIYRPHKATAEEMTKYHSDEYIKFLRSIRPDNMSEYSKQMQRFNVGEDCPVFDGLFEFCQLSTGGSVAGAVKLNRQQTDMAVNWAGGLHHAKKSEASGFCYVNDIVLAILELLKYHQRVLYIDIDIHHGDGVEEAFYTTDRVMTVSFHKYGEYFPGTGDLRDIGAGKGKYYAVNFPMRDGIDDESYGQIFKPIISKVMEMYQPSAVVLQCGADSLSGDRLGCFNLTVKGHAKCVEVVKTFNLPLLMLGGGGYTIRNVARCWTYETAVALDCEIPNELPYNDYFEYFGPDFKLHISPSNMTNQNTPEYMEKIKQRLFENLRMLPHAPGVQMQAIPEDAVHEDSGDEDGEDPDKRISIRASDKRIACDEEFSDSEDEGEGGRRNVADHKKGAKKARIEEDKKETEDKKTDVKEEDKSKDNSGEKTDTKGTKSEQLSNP

DU145 = assay: Cytotoxicity assay (SRB, 72 h) DU145; type: cell-based, Human; details: Homo sapiens, DU-145, read-out: IC50 ± SD DU145
HeLa = assay: Cytotoxicity assay (SRB, 72 h) HeLa; type: cell-based, Human; details: Homo sapiens, HeLa, read-out: IC50 ± SD HeLa
K 562 = assay: Cytotoxicity assay (MTT, 72 h) K 562; type: cell-based; details: Homo sapiens, K562, read-out: IC50 ± SD K 562
NCI-H460 = assay: Cytotoxicity assay (SRB, 72 h) NCI-H460; type: cell-based, Human; details: Homo sapiens, NCI-H460; 72 h, SRB assay; read-out: IC50 ± SD NCI-H460
A2780 = assay: Cytotoxicity assay (SRB, 72 h) A2780; type: cell-based, Human; details: Homo sapiens, A2780, read-out: IC50 ± SD A2780
THP1 = assay: Cytotoxicity assay (MTT, 72 h) THP1; type: cell-based; details: Homo sapiens, THP-1, read-out: IC50 ± SD THP1
H929 = assay: Cytotoxicity assay (MTT, 72 h) H929; type: cell-based; details: Homo sapiens, NCI-H929, read-out: IC50 ± SD H929
U937 = assay: Cytotoxicity assay (MTT, 72 h) U937; type: cell-based; details: Homo sapiens, U-937, read-out: IC50 ± SD U937
HT29 = assay: Cytotoxicity assay (SRB, 72 h) HT29; type: cell-based, Human; details: Homo sapiens, HT-29, read-out: IC50 ± SD HT29
MM472 = assay: Cytotoxicity assay, primary mesothelioma MM472; type: cell-based, Human; details: Homo sapiens; sarcomatoid, 72 h, SBR assay; read-out: IC50 ± SD MM472

## CC[C@@]1(O)C(=O)OCc2c1cc1n(c2=O)Cc2c-1nc1ccc(O)cc1c2C=NOCCCCCC(=O)NO [Compound 3d, 6-(10-hydroxycamptothecin-7-ylmethyleneaminooxy)-hexanoic acid hydroxyamide]
p53
  p53 activation: induced p53 activation
L-428
  IC50: 430 ± 70 nM
A2780-Dx; A2780-Dx versus A2780
  RI (Resistance Index): 6.6
A2780-Dx; Homo sapiens, A2780/DX, 72 h, SRB assay, multidrug-resistant ovarian carcinoma, read-out: IC50 ± SD A2780-Dx
  IC50: 1800 ± 400 nM
MM317
  IC50: 850 ± 200 nM
NCI-H460 NSCLC cells
  G0/1 (%): 12.1%
  G2/M (%): 11.9%
  S (%): 76.0%
NCI-H460 NSCLC cells; apoptosis
  Sub-G0/1 (%): 15.2%
DG-75
  IC50: 1900 ± 200 nM
p16
  P16 regulation: didn’t show any effect
JECO-1
  IC50: 23 ± 6 nM
MM487
  IC50: 200 ± 50 nM
Capan 1
  IC50: 35 ± 2 nM
[1]
  antitumor activity (BLI signal, average radiance): strong antitumor activity
KM-H2
  IC50: 390 ± 100 nM
RAJI
  IC50: 77 ± 20 nM
RAMOS
  IC50: 990 ± 100 nM
HDAC10
  IC50: 224 nM
A431
  IC50: 140 ± 20 nM
MV4-11
  IC50: 2730 ± 300 nM
HDAC2
  IC50: 93.3 nM
DU145
  IC50: 70 ± 3 nM
HeLa
  IC50: 180 ± 50 nM
K 562
  IC50: 940 ± 200 nM
NCI-H460
  IC50: 270 ± 20 nM
A2780
  IC50: 270 ± 80 nM
THP1
  IC50: 220 ± 90 nM
H929
  IC50: 1100 ± 400 nM
U937
  IC50: 180 ± 50 nM
HT29
  IC50: 390 ± 100 nM
MM472
  IC50: 48 ± 10 nM
